# Assay results taken from US10183949B2, “Pyrimidinone derivative having autotaxin-inhibitory activity” (The University of Tokyo, priority 2014, dated 2019).
# Biological target: T1, Human autotaxin enzyme (Homo sapiens, UniProt Q13822)
# T1 construct: purchased R&D System
# Assay: Evaluation of autotaxin inhibitor, 18:0 Lyso PC / choline assay (Test Example 2)
# Type: biochemical
# Details: autotaxin inhibition, IC50 class; read-out: Inhibitor activity
# Description: Solution B containing 100 mM Tris-HCl buffer (pH7.5), 150 mM NaCl, 5 mM MgCl2, and 0.05% Triton X-100 was prepared. Human autotaxin enzyme (purchased from R&D System) was diluted with Solution B, and 2.5 μl of which was added to a solution of test compound in DMSO. Furthermore, 2.5 μl of 200 μM 18:0 Lyso PC (purchased from Avanti Polar Lipids) in Solution B was added and allowed to react at room temperature for 2 hours. After completion of the reaction, 15 μl of the coline assay reagent. (100 mM Tris-HCl buffer (pH7.5), 5 mM. MgCl2, 77 μg/ml coline oxidase, 10 μg/ml peroxydase, 25μM 10-acetyl-3,7-dihydroxyphenoxazine, and excess autotaxin inhibitor) was added and allowed to react at room temperature for 20 minutes. The fluorescent dye Resorufin, which was produced by the reaction, was detected. The fluorescence was detected using ViewLux
# (PerkinElmer, Inc.) with a excitation wavelength of 531 nm and a fluorescence wavelength of 598 nm.
# The percent inhibition of the test compound was calculated by assuming the sample with no test compound as 0% inhibition and the sample with no enzyme as 100% inhibition, and the percent inhibitions at different concentrations of the test compound were plotted to obtain a concentration-dependent curve.
row,IC50,Compound
1,≥ 1000 nM,CC(=O)Nc1cc(Cl)ccc1-c1cc(=O)n(CC(=O)O)c(C)n1 [Compound I-0247]

# Same assay, conditions: human autotaxin enzyme, 18:0 Lyso PC substrate, choline assay, room temperature 2 hours; read-out: Inhibitor activity (IC50)
row,IC50,Compound
1,< 10 nM,CCCCCc1nc(-c2ccc(Cl)cc2)cc(=O)n1CC(=O)NC(CO)C(=O)O (stereo not drawn) [Compound I-0052]
2,100 to 1000 nM,CC(C)CC1CCN(c2cc(=O)n(CC(=O)NC3(C#N)CC3)c(CCCC(F)(F)F)n2)C1 (stereo not drawn) [Compound I-0240]
3,10 to 100 nM,CCOC(=O)c1nc(Cn2c(CCCC(F)(F)F)nc(-c3ccc(Cl)cc3)cc2=O)cs1 [Compound I-0326]
4,10 to 100 nM,N#CC1CCN(C(=O)Cn2c(CCCC(F)(F)F)nc(-c3ccc(C(F)(F)F)cc3)cc2=O)C1 (stereo not drawn) [Compound I-0327]
5,10 to 100 nM,COC(=O)Nc1cc(Cl)ccc1-c1cc(=O)n(CC(=O)NC2(C)CCS(=O)(=O)C2)c(C)n1 (stereo not drawn) [Compound I-0324]
6,10 to 100 nM,CN(C(=O)Cn1c(CCCC(F)(F)F)nc(-c2ccc(C(F)(F)F)cc2)cc1=O)C1(C)COC1 [Compound I-0332]
7,< 10 nM,CCCCCc1nc(-c2ccc(Cl)cc2)cc(=O)n1CC(=O)N1CCC(C(=O)O)CC1 [Compound I-0042]
8,10 to 100 nM,O=C(Cn1c(CCCC(F)(F)F)nc(-c2ccc(C(F)(F)F)cc2)cc1=O)N1CCC(OCCO)CC1 [Compound I-0354]
9,100 to 1000 nM,CC(C)(C)C(=O)Nc1cc(Cl)ccc1-c1cc(=O)n(CC(=O)NCC(N)=O)cn1 [Compound I-0409]
10,< 10 nM,N#CC1(NC(=O)Cn2c(CCCC(F)(F)F)nc(-c3ccc(Cl)cc3F)cc2=O)CC1 [Compound I-0228]
11,≥ 1000 nM,O=C(Cn1cnc(-c2ccc(Cl)cc2)cc1=O)NCCCCCNC(=O)c1ccc2[nH]nnc2c1 [Compound I-0476]
12,100 to 1000 nM,O=C(NCCCO)c1cccc(Cn2c(CCCC(F)(F)F)nc(-c3ccc(Cl)cc3)cc2=O)c1 [Compound I-0163]
13,10 to 100 nM,O=C(Cn1c(CCCC(F)(F)F)nc(-c2ccc(C(F)(F)F)cc2)cc1=O)N1CCC(N2CCNC2=O)CC1 [Compound I-0362]
14,10 to 100 nM,CCCCCNc1nc(-c2ccc(C#N)cc2)cc(=O)n1Cc1cccc(C(=O)O)c1 [Compound I-0022]
15,100 to 1000 nM,CCCCCc1nc(-c2ccc(Cl)cc2)cc(=O)n1CC(=O)NCCC(C)O (stereo not drawn) [Compound I-0096]
16,10 to 100 nM,Cc1nc(-c2ccc(Cl)cc2NC(=O)C2CC2)cc(=O)n1CC(=O)N1CCC(O)CC1 [Compound I-0435]
17,10 to 100 nM,CCCCCc1nc(-c2ccc(Cl)cc2)cc(=O)n1CC(=O)NC(C)(C)C(=O)OC [Compound I-0114]
18,100 to 1000 nM,CCS(=O)(=O)N1CCN(C(=O)Cn2c(CCCC(F)(F)F)nc(-c3ccc(C(F)(F)F)cc3)cc2=O)CC1 [Compound I-0366]
19,10 to 100 nM,N#CC1(NC(=O)Cn2c(CCCC(F)(F)F)nc(-c3ccc(C(F)(F)F)nc3)cc2=O)CC1 [Compound I-0233]
20,≥ 1000 nM,O=C(Cn1c(=O)cc(-c2ccc(Cl)cc2)[nH]c1=O)NC(Cc1ccccc1)C(=O)O (stereo not drawn) [Compound I-0150]
21,100 to 1000 nM,O=C(NCC(O)c1ccccc1)c1cccc(Cn2c(CCCC(F)(F)F)nc(-c3ccc(Cl)cc3)cc2=O)c1 (stereo not drawn) [Compound I-0167]
22,10 to 100 nM,COC(=O)Nc1cc(C#N)ccc1-c1cc(=O)n(CC(=O)NC2(C)COC2)c(C)n1 [Compound I-0397]
23,10 to 100 nM,CCCCCc1nc(-c2ccc(Cl)cc2)cc(=O)n1CC(=O)N1CCOCC1 [Compound I-0084]
24,100 to 1000 nM,CCCCCc1nc(-c2ccc(Cl)cc2)cc(=O)n1CC(=O)NCc1ccccc1C(=O)O [Compound I-0054]
25,10 to 100 nM,COC(=O)Nc1cc(Cl)ccc1-c1cc(=O)n(CC(=O)NCC2(CO)CC2)c(C)n1 [Compound I-0275]
26,100 to 1000 nM,CC(C)(C)OC(=O)Cn1c(CCC(F)(F)F)nc(-c2ccc(Cl)cc2)cc1=O [Compound I-0216]
27,10 to 100 nM,CCCCCc1nc(-c2ccc(Cl)cc2)cc(=O)n1CC(=O)NC1CCS(=O)(=O)CC1 [Compound I-0093]
28,< 10 nM,CCCCCc1nc(-c2ccc(Cl)cc2)cc(=O)n1CC(=O)NCC(C)(C)C(=O)O [Compound I-0070]
29,100 to 1000 nM,O=C(Cn1c(CCCC(F)(F)F)nc(-c2ccc(C(F)(F)F)cc2)cc1=O)N1CCC(O)C1 (stereo not drawn) [Compound I-0319]
